PMC5547389, “Structure-activity relationships and molecular docking studies of chromene and chromene based azo chromophores: A novel series of potent antimicrobial and anticancer agents” (EXCLI Journal, 2017)
≈ marks a conversion by molar mass, not a printed value.

Experiments:
[1] = tested on: human breast adenocarcinoma (MCF-7); assay: Cytotoxic screening; type: cell-based; conditions: for IC50: Homo sapiens, MCF7, read-out: IC50 MCF-7
Experimental: (§1) Human colon carcinoma (HCT-116), human hepatocellular carcinoma (HEPG-2), adenocarcinomic human alveolar basal epithelial cell (A-549), and human breast adenocarcinoma (MCF-7) cell lines were obtained from the American Type Culture Collection (ATCC, Rockville, MD). The cells were grown on RPMI-1640 medium supplemented with 10 % inactivated fetal calf serum and 50 µg/ml gentamycin. The cells were maintained at 37 °C in a humidified atmosphere with 5 % CO2 and were subcultured two to three times a week. Potential cytotoxicity of the compounds was evaluated on tumor cells using the method of Gangadevi and Muthumary (2007[21]) (Klancnik et al., 2010[36]). The cells were grown as monolayers in growth RPMI-1640. The monolayers of 104 cells adhered at the bottom of the wells in a 96-well microtiter plate incubated for 24 h at 37 °C in a humidified incubator with 5 % CO2. The monolayers were then washed with sterile phosphate buffered saline (0.01 M pH 7.2) and simultaneously the cells were treated with 100 µL from different dilutions of tested sample in fresh maintenance medium and incubated at 37 °C. A control of untreated cells was made in the absence of tested sample. Positive controls containing doxorubicin were also tested as a reference drug for comparison. Six wells were used for each concentration of the test sample. Every 24 hours an observation under the inverted microscope was made. The number of the surviving cells was determined by staining the cells with crystal violet (Mosmann, 1983[42]; Gangadevi and Muthumary, 2007[21]) followed by cell lysing using 33 % glacial acetic acid and reading the absorbance at 590 nm using microplate reader (SunRise, TECAN, Inc, USA) after well mixing. The absorbance values from untreated cells were considered as 100 % proliferation. The number of viable cells was determined using microplate reader as previously mentioned before and the percentage of […] was calculated as [1-(ODt/ODc)] x 100 % where ODt is the mean optical density of wells treated with the tested sample and ODc is the mean optical density of untreated cells. The relation between surviving cells and drug concentration was plotted to get the survival curve of each tumor cell line after treatment with the specified compound. The 50 % inhibitory concentration (IC50), the concentration required to cause toxic effects in 50 % of intact cells, was estimated from graphic plots.
(§2) The in vitro cytotoxic activity was performed by MTT assay (Mosmann, 1983[42]; Alley et al., 1988[6]) against three human carcinoma cell lines: Human colon carcinoma (HCT-116), human breast adenocarcinoma (MCF-7), and human hepatocellular carcinoma (HEPG-2).

[2] = tested on: human hepatocellular carcinoma (HEPG-2); assay: Cytotoxic screening; type: cell-based; conditions: HepG2, read-out: IC50 HepG-2
Experimental: as §1, §2

[3] = tested on: Human colon carcinoma (HCT-116); assay: Cytotoxic screening; type: cell-based; conditions: HCT-116; for IC50: Homo sapiens, read-out: IC50 HCT-116
Experimental: as §1, §2

[4] = tested on: Aspergillus fumigatus (RCMB 02568); assay: Well diffusion assay (inhibition zone); type: cell-based; conditions: RCMB02568, 5 mg/mL in DMSO, fungi, read-out: Inhibition Zone (IZ) diameter, A.F
Experimental: (§3) The microorganism inoculums were uniformly spread using sterile cotton swabs on a sterile Petri dish malt extract agar (for fungi) and nutrient agar (for bacteria). One hundred cubic millimeters of each sample was added to each well (10 mm-diameter holes were cut in the agar gel, 20 mm apart from one another). The systems were incubated for 24-48 h at 37 °C (for bacteria) and at 28 °C (for fungi). After incubation, the microorganism growth was observed. Inhibition zones of the bacterial and fungal growth were measured in millimeters. Tests were performed in triplicate (Cappuccino and Sherman, 1999[12]; Vanden Berghe and Vlientinck, 1991[62]).
(§4) All the newly synthesized compounds described in this report were screened for both antibacterial and antifungal activity via the reported agar diffusion well method (Vanden Berghe and Vlietinck, 1991[62]). The inhibition zones and minimum inhibitory concentrations (MIC) were determined by the serial dilution method (Cappuccino and Sherman, 1999[12]). The antimicrobial activity of the synthesized compounds was tested against a broad panel of microorganisms including two Gram-positive bacteria: Streptococcus pneumoniae (RCMB 010010) and Bacillus subtilis (RCMB 010067), two Gram-negative bacteria: Pseudomonas aeruginosa (RCMB 010043) and Escherichia coli (RCMB 010052), and four fungi: Aspergillus fumigatus (RCMB 02568), Syncephalastrum racemosum (RCMB 05922), Geotricum candidum (RCMB 05097), and Candida albicans (RCMB 05036). Ampicillin, ciprofloxacin, gentamicin and amphotericin B were used as positive control drugs (Atta-ur-Rahman and Thomsen, 2001[7]; Smania et al., 1999[57]). […] While in the case of Gm-ve bacteria, they had weak activity. In addition, certain strains of fungi were sensitive to tested compounds with an IZ range from 12-25 except Candida albicans.

[5] = tested on: Bacillus subtilis (RCMB 010067); assay: Well diffusion assay (inhibition zone); type: cell-based; conditions: RCMB010067, 5 mg/mL in DMSO, Gm+ve, read-out: Inhibition Zone (IZ) diameter, B.S
Experimental: as §3, §4

[6] = tested on: Syncephalastrum racemosum (RCMB 05922); assay: Well diffusion assay (inhibition zone); type: cell-based; conditions: RCMB05922, 5 mg/mL in DMSO, fungi, read-out: Inhibition Zone (IZ) diameter, S.R
Experimental: as §3, §4

[7] = tested on: Geotricum candidum (RCMB 05097); assay: Well diffusion assay (inhibition zone); type: cell-based; conditions: 5 mg/mL in DMSO; fungi; read-out: Inhibition Zone (IZ) diameter, G.C
Experimental: as §3, §4

[8] = tested on: Streptococcus pneumoniae (RCMB 010010); assay: Well diffusion assay (inhibition zone); type: cell-based; conditions: RCMB010010, 5 mg/mL in DMSO, Gm+ve, read-out: Inhibition Zone (IZ) diameter, S.P
Experimental: as §3, §4

[9] = tested on: Escherichia coli (RCMB 010052); assay: Well diffusion assay (inhibition zone); type: cell-based; conditions: RCMB010052, 5 mg/mL in DMSO, Gm-ve, read-out: Inhibition Zone (IZ) diameter, E.C
Experimental: as §3, §4

| Compound | IC50 [1] [mg/L] | IC50 [2] [mg/L] | IC50 [3] [mg/L] | melting point [°C] | IC50 MCF-7 ([1]; MCF-7) [mg/L] | IC50 HCT-116 [3] [mg/L] | zone of inhibition at 5000 µg/mL [4] [mm] | zone of inhibition at 5000 µg/mL [5] [mm] | zone of inhibition at 5000 µg/mL [6] [mm] | zone of inhibition at 5000 µg/mL [7] [mm] | zone of inhibition at 5000 µg/mL [8] [mm] | zone of inhibition at 5000 µg/mL [9] [mm] |
| --- | --- | --- | --- | --- | --- | --- | --- | --- | --- | --- | --- | --- |
| N#CC1=C(N)Oc2c(N)cc3ccccc3c2C1c1ccc(Cl)cc1Cl (centres unmarked) [4e, 3,5-Diamino-1-(2,4-dichloro-phenyl)-1H-benzo[f]chromene-2-carbonitrile] | 1.5 (≈ 3.92 µM) | 1 (≈ 2.62 µM) | 2 (≈ 5.23 µM) | 278 | – | – | – | – | – | – | – | – |
| N#CC1=C(N)Oc2c(N)cc3ccccc3c2C1c1ccc(F)cc1F (centres unmarked) [4f, 3,5-Diamino-1-(2,4-difluoro-phenyl)-1H-benzo[f]chromene-2-carbonitrile] | 6.38 (≈ 18.3 µM) | 5.22 (≈ 14.9 µM) | 9.25 (≈ 26.5 µM) | 282 | – | – | – | – | – | – | – | – |
| N#CC1=C(N)Oc2c(N)cc3ccccc3c2C1c1cccc(C(F)(F)F)c1F (centres unmarked) [4g, 3,5-Diamino-1-(2-fluoro-3-trifluoromethyl-phenyl)-1H-benzo[f]chromene-2-carbonitrile] | 53.5 (≈ 134 µM) | 32.4 (≈ 81.1 µM) | 30 (≈ 75.1 µM) | 202 | – | – | – | – | – | – | – | – |
| COc1cc(C2C(C#N)=C(N)Oc3c(N)cc4ccccc4c32)cc(OC)c1OC (centres unmarked) [4h, 3,5-Diamino-1-(3,4,5-trimethoxy-phenyl)-1H-benzo[f]chromene-2-carbonitrile] | 500 (≈ 1240 µM) | 500 (≈ 1240 µM) | 500 (≈ 1240 µM) | 225 | – | – | – | – | – | – | – | – |
| N#CC1=C(N)Oc2c(N)cc3ccccc3c2C1c1ccsc1 (centres unmarked) [4i, 3,5-Diamino-1-thiophen-3-yl-1H-benzo[f]chromene-2-carbonitrile] | 386 (≈ 1210 µM) | 188 (≈ 589 µM) | 500 (≈ 1570 µM) | 230 | – | – | – | – | – | – | – | – |
| O=c1[nH]cc(F)c(=O)[nH]1 [5-Flurouracil, reference compound] | – | – | – | – | 3.9 (≈ 30 µM) | 4.3 (≈ 33.1 µM) | – | – | – | – | – | – |
| CC(C)(C)c1ccc(C2C(C#N)=C(N)Oc3c2ccc2c(N)cccc32)cc1 (centres unmarked) [7a, 2,7-Diamino-4-(4-tert-butyl-phenyl)-4H-benzo[h]chromene-3-carbonitrile] | 17.5 (≈ 47.4 µM) | 11.9 (≈ 32.2 µM) | 14.3 (≈ 38.7 µM) | 210 | – | – | 15.4 | 16.9 | 14.1 | 15.8 | 16.1 | 13.8 |
| N#CC1=C(N)Oc2c(ccc3c(N)cccc23)C1c1cccs1 (centres unmarked) [7e, 2,7-Diamino-4-thiophen-2-yl-4H-benzo[h]chromene-3-carbonitrile] | 61.9 (≈ 194 µM) | 33.2 (≈ 104 µM) | 39.9 (≈ 125 µM) | 232 | – | – | 16.4 | 18.2 | 14.2 | 16.9 | 16.3 | 15.2 |
| Cc1ccc(N=Nc2cc3c(cc2O)OC(N)=C(C#N)C3c2ccc(F)cc2)cc1 (centres unmarked) [13a, 2-Amino-4-(4-fluoro-phenyl)-7-hydroxy-6-p-tolylazo-4H-chromene-3-carbonitrile] | – | – | – | 203 | – | – | 20.4 | 23.7 | 17.3 | 21.4 | 19.6 | 14.4 |
| N#CC1=C(N)Oc2cc(O)c(N=Nc3ccc([N+](=O)[O-])cc3)cc2C1c1ccc(F)cc1 (centres unmarked) [13c, 2-Amino-4-(4-fluoro-phenyl)-7-hydroxy-6-(4-nitro-phenylazo)-4H-chromene-3-carbonitrile] | 10.8 (≈ 25 µM) | 10.4 (≈ 24.1 µM) | 12.2 (≈ 28.3 µM) | 254 | – | – | 13.6 | 14.3 | 10.4 | – | 14.6 | 9.4 |
| N#CC1=C(N)Oc2cc(O)c(N=Nc3ccc(S(=O)(=O)O)cc3)cc2C1c1ccccc1F (centres unmarked) [13f, 4-[2-Amino-3-cyano-4-(2-fluoro-phenyl)-7-hydroxy-4H-chromen-6-ylazo]-benzenesulfonic acid] | 79.8 (≈ 171 µM) | 68.4 (≈ 147 µM) | 100 (≈ 214 µM) | 290 | – | – | 10.3 | 13.4 | 11.6 | 13.4 | 10.6 | 12.1 |
| COc1cccc2c1C(=O)c1c(O)c3c(c(O)c1C2=O)C[C@@](O)(C(=O)CO)C[C@@H]3O[C@H]1C[C@H](N)[C@H](O)[C@H](C)O1 [Doxorubicin, reference compound] | 1.02 (≈ 1.88 µM) | 1.19 (≈ 2.19 µM) | 0.88 (≈ 1.62 µM) | – | – | – | – | – | – | – | – | – |
| CC[C@]1(O)C[C@@H]2CN(CCc3c([nH]c4ccccc34)[C@@](C(=O)OC)(c3cc4c(cc3OC)N(C)[C@H]3[C@@](O)(C(=O)OC)[C@H](OC(C)=O)[C@]5(CC)C=CCN6CC[C@]43[C@@H]65)C2)C1 [Vinblastine, reference compound] | 6.1 (≈ 7.52 µM) | 4.6 (≈ 5.67 µM) | 2.6 (≈ 3.21 µM) | – | – | – | – | – | – | – | – | – |
